According to BindingDB's records for doi:10.1021/acsmedchemlett.1c00082 (Bristol Myers Squibb, 2021):

Test: Antagonist activity at CCR2 in human peripheral blood mononuclear cells assessed as reduction in MCP1-induced chemotaxis measured after 30 mins by calcein-AM dye based fluorescence assay

IC50: 1.7 nM
SMILES: CN[C@@H]1CC[C@H](N2CC[C@H](Nc3ncnc4ccc(C(F)(F)F)cc34)C2=O)[C@H](NC(C)=O)C1
